Literature values, collected in patent publication US20240032540A1, “MICROPARTICLE COMPOSITIONS COMPRISING FUNGICIDES” (BASF CORPORATION, priority 2020, published 2024).

O=C(NCCc1ncc(C(F)(F)F)cc1Cl)c1ccccc1C(F)(F)F [Fluopyram, N-{2-[3-chloro-5-(trifluoromethyl)-2-pyridyl]ethyl}-a,a,a-trifluoro-o-toluamide]
solubility in water: only sparingly soluble in water
